Data as given in US11542273B2, “Amide compound having bet proteolysis-inducing action and medicinal application thereof” (MITSUBISHI TANABE PHARMA CORPORATION, priority 2018, dated 2023).

Legend:
BRD4 bromodomain 1 = BRD4 bromodomain 1 (Homo sapiens (Human), UniProt O60885); assay: Inhibitory action on binding of BRD4 protein and ligand, Test Method 1 (TR-FRET, BRD4 bromodomain 1 TR-FRET Assay Kit); conditions: Test Method 1, BRD4 bromodomain 1 and ligand
Experimental: The inhibitory action of the compound of the present invention on the binding of BRD4 protein and a ligand thereof was evaluated by the time-resolved fluorescence resonance energy transfer (TR-FRET) method using BRD4 bromodomain 1 TR-FRET Assay Kit (Cayman). In this experiment, (+)-JQ1 known to have an inhibitory activity on the binding of BRD4 protein and a ligand therefor was used as a positive control drug. A test compound dissolved in DMSO was diluted with TR-FRET Assay Buffer, added to a 384 well black plate, BRD4 bromodomain 1 Europium Chelete was further added and the cells were incubated at room temperature for 15 min. Thereafter, BRD4 bromodomain 1 Ligand/APC Acceptor Mixture was added and the cells were incubated at room temperature for 1 hr. The binding amount of the BRD4 protein and ligand was measured as fluorescence intensity (excitation: 340 nm/emission: 620 nm and excitation: 340 nm/emission: 670 nm).
It was calculated from the straight line connecting the degradation rate at two points enclosing the 50% fluorescence intensity and the compound concentration.

BRD4 protein = BRD4 protein (Homo sapiens (Human), UniProt O60885); assay: BRD4 protein degradation inducing action in cancer cells (immunofluorescence, Operetta); assay type: cell-based; conditions: LNCaP cells, 6 hr treatment, fluorescence intensity
Summary of the method: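 DC50 = compound concentration reducing BRD4 immunofluorescence to 50% of untreated cells, interpolated between the two flanking concentrations. Treatment: LNCaP cells, 6 hr, 10% FBS/RPMI1640, 37° C. Cells were then fixed, permeabilized, stained with anti-BRD4 and Alexa Fluor 488 or 546 secondaries, and imaged.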

BRD4-1 (GST) = BRD4-1 (GST) (Homo sapiens (Human), UniProt O60885); assay: Inhibitory action on binding of BRD4 protein and acetylated histone H4, Test Method 2 (TR-FRET); conditions: Test Method 2, BRD4-1 (GST) and acetylated histone H4, TR-FRET
Experimental: The inhibitory action of the compound of the present invention on the binding of BRD4 protein and a ligand thereof (acetylated histone H4) was evaluated by the time-resolved fluorescence resonance energy transfer (TR-FRET) method using EPIgeneous™ Binding Domain Kit A (Cisbio), BRD4-1 (GST) (Reaction Biology Corp) and [Lys(Ac)5/8/12/16]-Histone H4(1-21)-GGK (Biotin) (Eurogentec). In this experiment, (+)-JQ1 known to have an inhibitory activity on the binding of BRD4 protein and acetylated histone H4 therefor was used as a positive control drug. A test compound dissolved DMSO was diluted with attached Diluent Buffer, added to a 384 well white plate, and BRD4-1 (GST) and [Lys(Ac)5/8/12/16]-Histone H4(1-21)-GGK (Biotin) were further added. Thereafter, Streptavidin-d2 conjugate and Anti-GST-Eu^3+ Cryptate Conjugate were added and the cells were incubated at room temperature for 3 hr. The binding amount of the BRD4 protein and acetylated histone H4 was measured as the fluorescence intensity (excitation: 314 nm/emission: 620 nm and excitation: 314 nm/emission: 665 nm). […] It was calculated from the straight line connecting the degradation rate at two points enclosing the 50% fluorescence intensity and the compound concentration.

Compound	IC50 (BRD4 bromodomain 1)	DC50 (BRD4 protein)	IC50 (BRD4-1 (GST))
COC(=O)C[C@@H]1N=C(c2ccc(-c3ccc(OCC(=O)N[C@H](C(=O)N4C[C@H](O)C[C@H]4C(=O)N[C@@H](C)c4ccc(-c5scnc5C)cc4)C(C)(C)C)c(C#N)c3)cc2)c2c(sc(C)c2C)-n2c(C)nnc21 [Example 9, methyl [(6S)-4-{3′-cyano-4′-[2-({(2S)-1-[(2S,4R)-4-hydroxy-2-({(1S)-1-[4-(4-methyl-1,3-thiazol-5-yl)phenyl]ethyl}carbamoyl)pyrrolidin-1-yl]-3,3-dimethyl-1-oxobutan-2-yl}amino)-2-oxoethoxy][1,1′-biphenyl]-4-yl}-2,3,9-trimethyl-6H-thieno[3,2-f][1,2,4]triazolo[4,3-a][1,4]diazepin-6-yl]acetate]	47 nM	0.15 nM	–
COC(=O)C[C@@H]1N=C(c2ccc(N3CC[C@@H](Oc4ccc5oc(C(=O)N[C@H](C(=O)N6C[C@H](O)C[C@H]6C(=O)N[C@@H](C)c6ccc(-c7scnc7C)cc6)C(C)(C)C)cc5c4)C3)cc2)c2c(sc(C)c2C)-n2c(C)nnc21 [Example 142, methyl [(6S)-4-{4-[(3R)-3-{[2-({(2S)-1-[(2S,4R)-4-hydroxy-2-({(1S)-1-[4-(4-methyl-1,3-thiazol-5-yl)phenyl]ethyl}carbamoyl)pyrrolidin-1-yl]-3,3-dimethyl-1-oxobutan-2-yl}carbamoyl)-1-benzofuran-5-yl]oxy}pyrrolidin-1-yl]phenyl}-2,3,9-trimethyl-6H-thieno[3,2-f][1,2,4]triazolo[4,3-a][1,4]diazepin-6-yl]acetate]	–	0.72 nM	110 nM
COC(=O)C[C@@H]1N=C(c2ccc(-c3ccc(C(=O)N[C@H](C(=O)N4C[C@H](O)C[C@H]4C(=O)N[C@@H](C)c4ccc(-c5scnc5C)cc4)C(C)(C)C)c(Cl)c3)cc2)c2c(sc(C)c2C)-n2c(C)nnc21 [Example 157, methyl {(6S)-4-[3′-chloro-4′-({(2S)-1-[(2S,4R)-4-hydroxy-2-({(1S)-1-[4-(4-methyl-1,3-thiazol-5-yl)phenyl]ethyl}carbamoyl)pyrrolidin-1-yl]-3,3-dimethyl-1-oxobutan-2-yl}carbamoyl)[1,1′-biphenyl]-4-yl]-2,3,9-trimethyl-6H-thieno[3,2-f][1,2,4]triazolo[4,3-a][1,4]diazepin-6-yl}acetate]	–	0.38 nM	61 nM
